{"source": "patent US8999375B2", "about": "“Compositions including pyruvate for companion animals and methods of use thereof” (Hill's Pet Nutrition, Inc., priority 2009, dated 2015)", "system": "arthritic and normal cats", "test": "Feline arthritis biomarker measurements in arthritic and normal cats", "format": "in vivo", "settings": "1% by weight in diet, 28 days", "method": "Calcium pyruvate was tested in arthritic and normal cats to determine efficacy in reducing cartilage damage and inflammatory markers. Ten normal and ten arthritis cats were fed the feline control diet enhanced with 1% by weight calcium pyruvate for 28 days. Analysis was performed on natural log transformed values. Means and SED are antilog values of log transformed data."}
{"substance": "calcium pyruvate", "values": [{"measurement": "concentration of serum HMGB1 (in words)", "result": "reduced"}, {"measurement": "concentration of serum IL-1 beta (in words)", "result": "reduced"}, {"measurement": "marker of bone formation, BAP (in words)", "result": "improved"}]}
